# Where “and” joins values, the source holds several entries; their conditions need not be identical. Equal entries are not always repeated.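 Following 48 hours of exposure in 96-well plates, responses at five concentrations were used to interpolate endpoints linearly. The concentration for 50% growth inhibition is given as GI50. TGI is the concentration that stops growth completely.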
# Experiments:
# Test in all cases: NCI tumour cell line growth inhibition, 48 h
# ACHN renal = tested on: ACHN renal
# UACC-62 melanoma = tested on: UACC-62 melanoma
# MOLT-4 leukemia = tested on: MOLT-4 leukemia
# SF-295 CNS = tested on: SF-295 CNS
# SK-MEL-2 melanoma = tested on: SK-MEL-2 melanoma
# SK-MEL-28 melanoma = tested on: SK-MEL-28 melanoma
# HOP-62 NSCLC = tested on: HOP-62 NSCLC
# UACC-257 melanoma = tested on: UACC-257 melanoma
# NCI-H460 lung = tested on: NCI-H460 lung
# NCI/ADR-RES ovarian = tested on: NCI/ADR-RES ovarian
# RPMI-8226 leukemia = tested on: RPMI-8226 leukemia
SMILES,TGI (ACHN renal),TGI (UACC-62 melanoma),TGI (MOLT-4 leukemia) [µM],TGI (SF-295 CNS),TGI (SK-MEL-2 melanoma),TGI (SK-MEL-28 melanoma) [µM],TGI (HOP-62 NSCLC),TGI (UACC-257 melanoma),TGI (NCI-H460 lung),TGI (NCI/ADR-RES ovarian),TGI (RPMI-8226 leukemia) [µM],GI50 (ACHN renal) [µM],GI50 (UACC-62 melanoma) [µM],GI50 (SF-295 CNS) [µM],GI50 (HOP-62 NSCLC) [µM],GI50 (NCI-H460 lung) [µM],GI50 (NCI/ADR-RES ovarian) [µM]
CN(Cc1cc(Cl)c(Cl)cc1NC(=O)CN)[C@H]1CCCC[C@@H]1N1CCCC1,> 100 µM,31.5 µM,> 100,36.6 µM,31.9 µM,41.5,> 100 µM,31.7 µM,57.8 µM,> 100 µM,,,,,,,
O=[N+]([O-])c1cccc2nccc(NCCCO)c12,53.5 µM,23.3 µM,45.1,32 µM,20.9 µM,26.5,35.4 µM,23.6 µM,24.4 µM,,46.6,,,,,,
C=C(C(=O)O[C@H]1C(=O)C2=C(C)CCC3C(=C)C(=O)O[C@@H]3C2[C@]1(C)O)C1CC[C@]2(C)CCCC(=C)[C@H]2C1 (stereo not given in full),11 µM and 8.85 µM,9.79 µM and 31.6 µM,5.38,9.37 µM and 29.5 µM,20.3 µM and 23.5 µM,12.5,10.2 µM and 20.5 µM,14 µM and 12 µM,10.4 µM and 11.1 µM,33.6 µM and > 23.8 µM,,5.19,16.9,0.0252,3.09,0.0398,8.52
C/C=N\N1C(=O)c2ccccc2C1=O,> 100 µM,> 100 µM,> 100,> 100 µM,> 100 µM,> 100,> 100 µM,> 100 µM,> 100 µM,,> 100,,,,,,
COC(=O)C1=C(C(=O)OC)SC2(S1)C(C(=O)OC)=C(C(=O)OC)Sc1c2ssc1=NC(C)(C)C,3.35 µM,2.97 µM,2.16,27.7 µM,2.82 µM,5.02,15.5 µM,3.05 µM,,7.73 µM,,,,,,,
N#CCC(=O)N1CCCCCCC1,> 100 µM,> 100 µM,,> 100 µM,> 100 µM,> 100,> 100 µM,> 100 µM,> 100 µM,,,,,,,,
CCN1CCC(O)(/C=C/c2ccc(OC)cc2)C(C(=O)/C=C/c2ccc(OC)cc2)C1 (stereo not given),26.6 µM,26.1 µM,12.4,29.2 µM,,24.4,33.4 µM,30.9 µM,27.6 µM,21.9 µM,44.8,,,,,,
O=[N+]([O-])C(Cl)=C/C(=C(\Cl)SCc1ccccc1)[N+](=O)[O-],32.2 µM,> 100 µM,46.9,99.6 µM,76.5 µM,59.7,36.2 µM,79.7 µM,> 100 µM,> 100 µM,,,,,,,
O=c1c2ccccc2nc(N/N=C/c2ccccc2O)n1-c1ccccc1,> 100 µM,7.1 µM,,> 100 µM,> 100 µM,> 100,> 100 µM,> 100 µM,> 100 µM,7.71 µM,,,,,,,
O=c1oc2ccccc2c(O)c1C(C/C(CCN1CCCC1)=N\Nc1ccccc1)c1ccccc1 (stereo not given),> 100 µM,> 100 µM,,> 100 µM,> 100 µM,,> 100 µM,> 100 µM,> 100 µM,,77.7,,,,,,

# Reference: PubChem BioAssay (NCI)
